What was measured:
rat TRPA1 [1] = biological target: T1, rat TRPA1 (Rattus norvegicus, UniProt Q6RI86); design: method as in PMID 28903060; conditions: TRPA1 in vitro; cited from earlier work
T1 construct: expressed in transfected cells; host or cells: HEK-293

rat TRPA1 [2] = biological target: T1, rat TRPA1; assay: Elevation of intracellular Ca2+ (Fluo-4) in HEK-293 cells stably transfected with rat TRPA1; agonist and antagonist/desensitizing behaviour; type: cell-based; conditions: AP18 at 50 μM, 5 min pre-incubation, rTRPA1-HEK-293
Protocol: Assay of rat TRPA1, TRPV2, TRPV3, TRPV4, TRPM8 or human TRPV1 mediated elevation of intracellular Ca^2+ in transfected HEK-293 cells are been performed as described. Briefly, human embryonic kidney (HEK-293) cells, stably transfected with rat TRPA1, TRPV2, TRPV3, TRPV4, TRPM8 or human TRPV1 (selected by Geneticin 600 μg mL^−1) or not transfected, were cultured in EMEM + 2 mM Glutamine + 1% Non-Essential Amino Acids (NEAA) + 10% FBS and maintained at 37 °C with 5% CO2. Stable transfections were checked by quantitative real-time polymerase chain reaction (PCR), quantitative real-time PCR was performed by an iCycler-iQ (Bio-Rad, Hercules, CA, USA) in a 20 μL reaction mixture containing the following: 10 μL iQ SYBR Green Supermix 2X (Bio-Rad), 20 ng of cDNA (calculated on the basis of the retro-transcribed RNA), and 330 nM for each primer. Optimized primers for SYBR Green analysis (and relative TaOpt) and optimum annealing temperatures were designed by Allele-Id software version 7.0 (Biosoft International, Palo Alto, CA, USA) and were synthesized (HPLC-purification grade) by MWG-Biotech AG (Ebersberg, Germany). Assays were performed in quadruplicate (maximal ΔCt of replicate samples, <0.5). Relative expression analysis, correct for PCR efficiency and normalized with respect to reference genes β-actin and glyceraldehyde 3-phosphate dehydrogenase, was performed by GENEX software (Bio-Rad). […] The day of the experiment the cells were loaded with Fluo-4 AM (4 μM in DMSO containing 0.02% Pluronic F-127) for 1 h in the dark at room temperature, rinsed and resuspended in Tyrode’s solution (145 mM NaCl, 2.5 mM KCl, 1.5 mM CaCl2, 1.2 mM MgCl2, 10 mM D-glucose, and 10 mM HEPES, pH 7.4), finally transferred to a quartz cuvette of a spectrofluorimeter (Perkin-Elmer LS50B; λEX = 488 nm, λEM = 516 nm) equipped with PTP-1 Fluorescence Peltier System (PerkinElmer Life and Analytical Sciences, Waltham, MA, USA) under continuous stirring. Cell fluorescence before and after the addition of various concentrations of test compounds and extracts were measured normalizing the effects against the response to ionomycin (4 µM). The values of the effect on [Ca^2+]i in HEK-293 cells not transfected are used as baseline and subtracted from the values obtained from transfected cells. […] The potency of the compounds (EC50 values) are determined as the concentration required to produce half-maximal increases in [Ca^2+]i. In TRPV3 assay TRPV3-expressing HEK293 cells were first sensitized with the structurally unrelated agonist 2-aminoethoxydiphenyl borate (100 μM). Antagonist/desensitizing behaviour is evaluated against the agonist of the TRP analyzed by adding the compounds directly in the quartz cuvette 5 min before stimulation of cells with the agonist. […] In order to assess functional antagonism of TRPA1 channels, AP18, 4-(4-chlorophenyl)-3-methyl-3-buten-2-one oxime […] Dose-response curve fitting (sigmoidal dose-response variable slope) and parameter estimation were performed with Graph-Pad Prism8® (GraphPad Software Inc., San Diego, CA, USA). All determinations were performed at least in triplicate.

T1 sequence (Q6RI86 whole entry): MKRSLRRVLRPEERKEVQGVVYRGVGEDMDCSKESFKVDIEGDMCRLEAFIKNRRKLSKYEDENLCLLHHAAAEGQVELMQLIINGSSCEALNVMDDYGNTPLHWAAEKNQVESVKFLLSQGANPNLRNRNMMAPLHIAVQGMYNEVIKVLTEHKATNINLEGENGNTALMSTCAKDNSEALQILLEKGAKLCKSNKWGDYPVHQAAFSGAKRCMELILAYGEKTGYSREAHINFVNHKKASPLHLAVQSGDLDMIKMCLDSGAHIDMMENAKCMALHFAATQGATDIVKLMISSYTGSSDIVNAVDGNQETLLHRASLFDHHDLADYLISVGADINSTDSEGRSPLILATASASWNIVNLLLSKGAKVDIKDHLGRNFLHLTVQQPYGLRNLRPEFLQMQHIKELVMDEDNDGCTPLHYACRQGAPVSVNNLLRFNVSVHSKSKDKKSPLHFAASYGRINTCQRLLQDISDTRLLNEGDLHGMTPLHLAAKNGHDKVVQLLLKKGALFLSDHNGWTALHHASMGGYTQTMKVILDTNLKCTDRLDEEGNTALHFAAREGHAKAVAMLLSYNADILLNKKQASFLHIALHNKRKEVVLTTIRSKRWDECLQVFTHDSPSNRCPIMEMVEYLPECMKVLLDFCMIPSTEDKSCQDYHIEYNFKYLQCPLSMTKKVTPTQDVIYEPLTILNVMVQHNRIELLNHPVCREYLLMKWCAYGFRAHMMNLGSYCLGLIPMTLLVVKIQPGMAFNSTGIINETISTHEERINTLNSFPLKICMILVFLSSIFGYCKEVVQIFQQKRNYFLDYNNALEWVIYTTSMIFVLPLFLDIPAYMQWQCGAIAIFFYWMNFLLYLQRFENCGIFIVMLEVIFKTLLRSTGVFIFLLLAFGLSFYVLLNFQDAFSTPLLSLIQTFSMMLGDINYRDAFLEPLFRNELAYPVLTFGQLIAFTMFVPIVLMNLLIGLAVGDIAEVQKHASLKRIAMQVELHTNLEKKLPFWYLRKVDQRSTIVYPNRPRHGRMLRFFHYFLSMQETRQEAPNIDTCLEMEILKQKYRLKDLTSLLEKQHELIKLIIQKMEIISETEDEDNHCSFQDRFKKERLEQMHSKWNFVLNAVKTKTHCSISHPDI

SMILES	EC50 (rat TRPA1 [1])	Reduction of elevation of intracellular Ca2+ induced by AITC (100 μM) (rat TRPA1 [2])	Reduction of elevation of intracellular Ca2+ induced by moringin (10 μM) (rat TRPA1 [2])
COc1cc(/C=C/C(=O)CC(=O)/C=C/c2ccc(O)c(OC)c2)ccc1O [curcumin]	3.3 µM		
CC(=Cc1ccc(Cl)cc1)C(C)=NO [AP18, 4-(4-chlorophenyl)-3-methyl-3-buten-2-one oxime, reference compound]		68.6 ± 3.0%	64.1 ± 2.7%
